Reference: ChEMBL document CHEMBL5385844, “Discovery of novel imidazole chemotypes as isoform-selective JNK3 inhibitors for the treatment of Alzheimer's disease” (Eur J Med Chem, 2023)

Legend:
[1] = target: Mitogen-activated protein kinase 10 (Homo sapiens, UniProt P53779); experiment: Inhibition of human JNK3 incubated for 40 mins in presence of ATP and [gamma33P-ATP] by scintillation counting method
[2] = target: T1, Mitogen-activated protein kinase 8 (Homo sapiens, UniProt P45983); experiment: Inhibition of human JNK1 incubated for 40 mins in presence of ATP and [gamma33P-ATP] by scintillation counting method
T1 sequence (P45983 whole entry): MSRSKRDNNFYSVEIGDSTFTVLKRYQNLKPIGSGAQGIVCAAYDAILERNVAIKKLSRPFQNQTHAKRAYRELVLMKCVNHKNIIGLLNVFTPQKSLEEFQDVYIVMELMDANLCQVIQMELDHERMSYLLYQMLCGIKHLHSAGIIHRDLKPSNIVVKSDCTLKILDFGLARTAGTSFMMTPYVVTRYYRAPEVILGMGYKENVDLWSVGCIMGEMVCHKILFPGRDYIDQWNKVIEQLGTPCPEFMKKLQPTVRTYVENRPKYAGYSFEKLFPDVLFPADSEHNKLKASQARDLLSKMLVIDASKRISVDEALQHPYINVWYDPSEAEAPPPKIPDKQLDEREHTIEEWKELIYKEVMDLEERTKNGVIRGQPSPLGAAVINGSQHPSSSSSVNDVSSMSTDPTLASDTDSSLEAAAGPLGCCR

[3] = target: T2, Mitogen-activated protein kinase 9 (Homo sapiens, UniProt P45984); experiment: Inhibition of human JNK2 incubated for 40 mins in presence of ATP and [gamma33P-ATP] by scintillation counting method
T2 sequence (P45984 whole entry): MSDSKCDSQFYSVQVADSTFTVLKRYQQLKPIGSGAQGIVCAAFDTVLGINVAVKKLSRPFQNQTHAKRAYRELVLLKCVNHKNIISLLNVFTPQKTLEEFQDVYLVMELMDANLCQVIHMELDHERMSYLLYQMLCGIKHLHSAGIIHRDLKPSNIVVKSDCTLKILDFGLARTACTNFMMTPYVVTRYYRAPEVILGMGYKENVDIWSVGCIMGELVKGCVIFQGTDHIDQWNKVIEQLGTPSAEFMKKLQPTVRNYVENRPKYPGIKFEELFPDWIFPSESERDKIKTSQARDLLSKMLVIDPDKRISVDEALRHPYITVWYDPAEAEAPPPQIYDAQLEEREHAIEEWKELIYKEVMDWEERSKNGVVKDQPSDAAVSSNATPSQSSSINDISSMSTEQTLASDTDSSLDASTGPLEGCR

[4] = target: T1, Mitogen-activated protein kinase 8; experiment: Inhibition of JNK1 (unknown origin) assessed as incorporation of 33P-ATP
[5] = target: T1, Mitogen-activated protein kinase 8; experiment: Inhibition of JNK1 (unknown origin) by ATP-competitive assay
[6] = target: T2, Mitogen-activated protein kinase 9; experiment: Inhibition of JNK2 (unknown origin) by ATP-competitive assay

Mitogen-activated protein kinase 10, sequence (P53779 whole entry): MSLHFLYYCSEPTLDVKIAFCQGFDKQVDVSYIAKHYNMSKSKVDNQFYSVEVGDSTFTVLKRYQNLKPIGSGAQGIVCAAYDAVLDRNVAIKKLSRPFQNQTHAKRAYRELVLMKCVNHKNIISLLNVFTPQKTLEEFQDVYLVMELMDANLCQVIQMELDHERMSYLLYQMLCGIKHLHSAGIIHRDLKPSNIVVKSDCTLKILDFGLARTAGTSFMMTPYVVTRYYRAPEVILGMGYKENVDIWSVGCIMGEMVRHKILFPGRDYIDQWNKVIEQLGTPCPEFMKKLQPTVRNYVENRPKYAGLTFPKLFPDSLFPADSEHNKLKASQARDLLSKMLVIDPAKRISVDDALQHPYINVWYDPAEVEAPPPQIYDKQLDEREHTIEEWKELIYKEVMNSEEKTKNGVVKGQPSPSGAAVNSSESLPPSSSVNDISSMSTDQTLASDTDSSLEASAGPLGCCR

Row | Structure (SMILES) | IC50 ([1]; read-out: IC50) [nM] | further results
1 | N#CCc1cnc(-c2ccc3c(c2)OCO3)n1-c1ccnc(NC2CCOCC2)n1 | 8560 | –
2 | N#CCc1cnc(-c2ccc3ccccc3c2)n1-c1ccnc(NC2CCOCC2)n1 | 321 | –
3 | N#CCc1cnc(-c2ccc(F)c(C(F)(F)F)c2)n1-c1ccnc(NC2CCOCC2)n1 | 421 | –
4 | C[C@@H](O)CNc1nccc(-n2c(CC#N)cnc2-c2ccc3ccccc3n2)n1 | > 10000 | –
5 | N#CCc1cnc(-c2ccc(Cl)c(Cl)c2)n1-c1ccnc(N[C@H]2CCCN(C(=O)NC3CC3)C2)n1 | 5.3 | IC50 [2]: 513 nM; IC50 [3]: 55.8 nM
6 | C[C@@H](O)CNc1nccc(-n2c(CC#N)cnc2-c2ccc3ccccc3c2)n1 | 4960 | –
7 | N#CCc1cnc(-c2ccc(Cl)c(Cl)c2)n1-c1ccnc(NC2CCCCC2)n1 | 611 | –
8 | C[C@@H](O)CNc1nccc(-n2c(CC#N)cnc2-c2ccc3c(c2)OCO3)n1 | > 10000 | –
9 | N#CCc1cnc(-c2ccc(Cl)c(Cl)c2)n1-c1ccnc(NC2CCOCC2)n1 | 290 | –
10 | N#CCc1cnc(-c2ccc(F)c(C(F)(F)F)c2)n1-c1ccnc(N[C@H]2CCCNC2)n1 | – | IC50 [1]: Not Active
11 | NC(=O)N1Cc2nc(-c3ccc(Cl)c(Cl)c3)n(-c3ccnc(N[C@@H]4CCN(C(=O)C5CC5)C4)n3)c2C1 | – | IC50 [4]: > 3000 nM
12 | N#CCc1cnc(-c2ccc3c(c2)OCCO3)n1-c1ccnc(NC2CCOCC2)n1 | > 10000 | –
13 | N#CCc1cnc(C2=CC3OCOC3C=C2)n1-c1ccnc(N[C@H]2CCCNC2)n1 (stereo partly drawn) | > 10000 | –
14 | N#CCc1cnc(C2=CC3OCOC3C=C2)n1-c1ccnc(N[C@H]2CCCN(C(=O)C3CC3)C2)n1 (stereo partly drawn) | 55 | –
15 | N#CCc1cnc(-c2ccc3ccccc3c2)n1-c1ccnc(NC2CCCCC2)n1 | 142 | –
16 | N#CCc1cnc(-c2ccc3ccccc3n2)n1-c1ccnc(N[C@H]2CCCN(C(=O)C3CC3)C2)n1 | 396 | –
17 | C[C@@H](O)CNc1nccc(-n2c(CC#N)cnc2-c2ccc(Cl)c(Cl)c2)n1 | 6760 | –
18 | N#CCc1cnc(-c2ccc3ccccc3c2)n1-c1ccnc(Nc2cccc(C(=O)C3CC3)c2)n1 | 7 | IC50 [2]: 1730 nM; IC50 [3]: 287 nM
19 | O=C1c2ccccc2C2=NNC3=CC=CC1C32 (stereo not drawn) | – | IC50 [5]: 40 nM; IC50 [6]: 40 nM
20 | N#CCc1cnc(-c2ccc3occc3c2)n1-c1ccnc(N[C@H]2CCCN(C(=O)C3CC3)C2)n1 | 6.2 | IC50 [2]: 359 nM; IC50 [3]: 268 nM
21 | N#CCc1cnc(-c2ccc3c(c2)OCCO3)n1-c1ccnc(NC2CCCCC2)n1 | 6270 | –
